From patent US4416871A, “Inhibition by peptides of tolerance to and physical dependence on morphine” (The United States of America as represented by the …, priority 1982, dated 1983)

What was measured:
Type in all cases: in vivo
morphine-dependent mice [1] = assay: Body temperature, body weight and mortality during 3-day morphine pellet implantation with multiple peptide injections
Procedure: Male C57B1/6J, Swiss Webster, and ICR mice weighing 26±4 g (SD) were used in these studies.
(§1) The mice were randomly divided into two groups. One received SC injections of water (vehicle) while the other received the peptide under investigation (50 μg/mouse on day one). Two hours later the mice were further subdivided and each subgroup was implanted with placebo or morphine pellets. The injections of vehicle and peptide were repeated 24 and 48 hours after the first injection in their respective groups. Morphine pellets containing 75 mg of morphine free base were implanted subcutaneously (SC) between 10-11 A.M. and were removed 3 days later at the same time. The control animals were implanted with placebo pellets. Body temperature and weight were measured daily at 11 A.M. Temperature was measured using a lubricated rectal probe inserted 2.5 cm into the rectum and measured with a telethermometer (Model 43TA Yellow Springs Instrument Co., Yellow Springs, Ohio).
A similar relationship was found for the loss in body weight. Swiss Webster mice lost 16% and 14% in body weight when receiving Z-Pro-D-Leu or vehicle respectively. The C57B1/6J mice given Z-Pro-D-Leu/morphine lost 14%, while the vehicle/morphine group lost 11% in body weight during this period regardless of peptide or vehicle injections. There was one significant strain difference, i.e. a greater mortality during morphine treatment of C57B1/6J mice ([…], Binomial test).

[2] = Brain levels of morphine, fluorometric; settings: Swiss Webster mice, third day of morphine treatment, n=6
Procedure: Brain levels of morphine were measured in mice which received either the peptide or vehicle injections. For these studies mice were also sacrificed on the third day following morphine implantation. The mice were then sacrificed by decapitation, brains were rapidly removed, frozen on dry ice, and stored at -80° C. until assay for morphine content. Brain morphine concentrations were determined fluorometrically (Bhargava, H. N., J. Pharma. Sci., 66, 1044-1045[1977]).

morphine-dependent mice [3] = assay: Analgesia during morphine pellet implantation: jump threshold on electrified grid; settings: peptide-injected mice receiving morphine
Procedure: (§2) The level of analgesia was tested on each of the three days of the experiment. This was accomplished by measuring the jump threshold to an increasing electrical current in an electrified grid attached to a BRS/LVE #SGS-004 shock generator/scrambler (Evans, W. D., Phychopharmacol., 2, 318-325[1961]). Mice were tested only once and thereafter discarded from the experiment. When determining the effect of the peptide on overt signs of physical dependence (body temperature and weight) and tolerance (body temperature and analgesia), the peptide or vehicle was injected only once on the third day of the morphine or placebo pellet implantation (25 hours prior to the removal of the pellet).
Inhibition of development of tolerance to and physical dependence upon morphine by Z-Pro-D-Leu. The jump threshold in vehicle-injected, morphine-dependent mice decreased, indicating development of tolerance to the analgesic properties of morphine. Threshold scores were: 4.00±0.18;3.50±0.52; 2.55±0.44; on days 1-3 respectively, (n=6 for each group).

morphine-dependent mice [4] = assay: Abrupt withdrawal after pellet removal: body temperature and body weight for 10 hours (FIG. 1); settings: Swiss Webster mice, any time point up to 10 hours
Procedure: FIG. 1 illustrates the inhibition of development of physical dependence (abrupt withdrawal) by Z-Pro-D-Leu. Swiss Webster mice were implanted with either morphine or placebo tablets for a period of 3 days. Following removal of the pellets, body temperature and body weight were followed for 10 hours. Panel (a) represents the change in body temperature: (Δ--Δ) Z-Pro-D-Leu/morphine; (O--O) vehicle/morphine; ( -- ) Z-Pro-D-Leu/placebo; ( -- ) vehicle/placebo. Panel (b) represents the maximal loss in body weight during the same period.
To determine the effects of peptide treatment on the development of physical dependence, the abstinence syndrome was precipitated using the morphine antagonist naloxone (Endo Laboratories Inc., N.Y.) at the appropriate dose (0.1, 0.25, or 0.50 mg/kg) injected intraperitoneally (IP) one hour following removal of morphine and placebo pellets. Pellet removal was performed 24 hours after the last peptide injection. These mice were monitored for changes in body temperature (see above) and body weight at 15 min. intervals for one hour after the naloxone injection. Effects of removing the pellets (withdrawing morphine) were also assessed by utilizing body temperature and weight as physical dependence parameters; however, these measurements were made at 2 hour intervals for 10 hours after the removal of the pellets. […]

morphine-dependent mice [5] = assay: Naloxone-precipitated withdrawal: body temperature and withdrawal signs
Procedure: as §1
To determine the effects of peptide treatment on the development of physical dependence, the abstinence syndrome was precipitated using the morphine antagonist naloxone (Endo Laboratories Inc., N.Y.) at the appropriate dose (0.1, 0.25, or 0.50 mg/kg) injected intraperitoneally (IP) one hour following removal of morphine and placebo pellets. Pellet removal was performed 24 hours after the last peptide injection. These mice were monitored for changes in body temperature (see above) and body weight at 15 min. intervals for one hour after the naloxone injection. Effects of removing the pellets (withdrawing morphine) were also assessed by utilizing body temperature and weight as physical dependence parameters; however, these measurements were made at 2 hour intervals for 10 hours after the removal of the pellets. Placebo implanted mice were treated in the same manner as the morphine pellet implanted mice.

morphine-dependent mice [6] = assay: Tolerance to hypothermic and analgesic effects of ICV morphine 24 hours after pellet removal; settings: for Jump Threshold: one hr. after ICV morphine
Procedure: as §2
Tolerance to hypothermic and analgesic effects of morphine injected intracerebroventricularly (ICV) was assessed 24 hours after the removal of the pellets in mice not injected with naloxone. The ICV injection was 40 μg of morphine sulfate solution in 10 μl volume. Body temperature was recorded prior to and at 10 and 15 min. after injection of morphine. Analgesia was determined one hour after the ICV injection.

morphine-dependent mice [7] = assay: Naloxone-precipitated withdrawal: body temperature and withdrawal signs; remark: listed apart in the source
[8] = C57B1/6J, Z-Pro-D-Leu/morphine, peptide day 3 only, n=6, ICV morphine challenge
[9] = C57B1/6J, Z-Pro-D-Leu/placebo pellets, n=8, ICV morphine challenge
[10] = C57B1/6J, Z-Pro-D-Leu/placebo, peptide day 3 only, n=6, ICV morphine challenge
[11] = Swiss Webster, Z-Pro-D-Leu/morphine pellets, n=15, ICV morphine challenge
[12] = Swiss Webster, Z-Pro-D-Leu/placebo pellets, n=8, ICV morphine challenge

Substance: Z-Pro-D-Leu
- number of deaths, peptide/morphine compared with vehicle/morphine (morphine-dependent mice [1]; C57B1/6J P=0.32, Swiss Webster P=0.65, Binomial test): no difference in the number of deaths
- body temperature (X) on the third day of morphine treatment (morphine-dependent mice [1]; Swiss Webster mice, morphine pellets, multiple injections of peptide 50 μg/mouse SC, day 3, n=14): -1.5 °C
- body temperature on days 1 and 2 versus vehicle (morphine-dependent mice [1]; Swiss Webster or C57B1/6J mice receiving morphine, days 1 and 2): no significant difference in body temperature
- brain morphine levels [2]: 288 ± 99 µg/g
- jump threshold score (morphine-dependent mice [3]; day 1): 4.07±0.27
- jump threshold score (morphine-dependent mice [3]; day 2): 4.27±0.62
- jump threshold score (morphine-dependent mice [3]; day 3): 4.45±0.64
- hypothermia and loss of body weight during abstinence, peptide/morphine versus the two control groups (morphine-dependent mice [4]): no significant difference
- Withdrawal, % of control (jumping, shakes, diarrhea) (morphine-dependent mice [5]; Table II, peptide 50 μg per mouse, naloxone 0.1 mg/kg): 9%
- Δt, °C. (difference in body temperature just prior to naloxone and 30 min. thereafter) (morphine-dependent mice [5]; Table II, peptide 50 μg per mouse, naloxone 0.1 mg/kg, mean ± SD): -0.09 ± 0.58 °C
- Withdrawal, % of control (morphine-dependent mice [5]; Table III, dose 50 μg): 9%
- Δt, °C. (morphine-dependent mice [5]; Table III, dose 50 μg): -0.09 ± 0.58 °C
- lowest dose still effective in blocking physical dependence on morphine (morphine-dependent mice [5]; dose-response experiments, Table III): 5 μg per mouse
- ability to block development of physical dependence on morphine (morphine-dependent mice [5]; naloxone-precipitated withdrawal, Tables II and III): exhibited activity
- Δt (15 min.) (morphine-dependent mice [6]; C57B1/6J, Z-Pro-D-Leu/morphine pellets, n=9, ICV morphine challenge): -2.12 ± 0.52
- Δt (10 min.) (morphine-dependent mice [6]; C57B1/6J, Z-Pro-D-Leu/morphine pellets, n=9, ICV morphine challenge 24 hrs after pellet removal): -2.04 ± 0.42
- Δt (10 min.) (morphine-dependent mice [6]; [8]): -0.75 ± 0.19
- Δt (15 min.) (morphine-dependent mice [6]; [8]): -1.00 ± 0.16
- Jump Threshold (morphine-dependent mice [6]; C57B1/6J, Z-Pro-D-Leu/morphine, peptide day 3 only, n=6): 2.12 ± 0.34
- Δt (10 min.) (morphine-dependent mice [6]; [9]): -1.76 ± 0.33
- Δt (15 min.) (morphine-dependent mice [6]; [9]): -2.19 ± 0.41
- Jump Threshold (morphine-dependent mice [6]; C57B1/6J, Z-Pro-D-Leu/placebo pellets, n=8): 3.79 ± 0.39
- Δt (10 min.) (morphine-dependent mice [6]; [10]): -1.85 ± 0.25
- Δt (15 min.) (morphine-dependent mice [6]; [10]): -1.88 ± 0.17
- Jump Threshold (morphine-dependent mice [6]; C57B1/6J, Z-Pro-D-Leu/placebo, peptide day 3 only, n=6): 4.05 ± 0.85
- Δt (10 min.) (morphine-dependent mice [6]; [11]): -1.10 ± 0.29
- Δt (15 min.) (morphine-dependent mice [6]; [11]): -1.32 ± 0.34
- Jump Threshold (morphine-dependent mice [6]; Swiss Webster, Z-Pro-D-Leu/morphine pellets, n=15): 4.33 ± 0.54
- Δt (10 min.) (morphine-dependent mice [6]; [12]): -1.16 ± 0.30
- Δt (15 min.) (morphine-dependent mice [6]; [12]): -1.48 ± 0.46
- Jump Threshold (morphine-dependent mice [6]; Swiss Webster, Z-Pro-D-Leu/placebo pellets, n=8): 4.18 ± 0.41
- response to ICV injection of morphine (morphine-dependent mice [6]; peptide given during chronic morphine treatment): not significantly different from morphine-naive mice
- response to ICV injection of morphine (morphine-dependent mice [6]; peptide given only on the third day of pellet implantation): did not effectively alter the manifestation of tolerance
- Withdrawal, % of control (morphine-dependent mice [7]; Table III, dose 0.5 μg): 100%
- Withdrawal, % of control (morphine-dependent mice [7]; Table III, dose 5 μg): 25%
- Δt, °C. (morphine-dependent mice [7]; Table III, dose 5 μg): -0.05 ± 0.37 °C
- body temperature response 30 min after naloxone (morphine-dependent mice [7]; peptide injection only on the third day of morphine treatment): hypothermic response
- body temperature response 30 min after naloxone (morphine-dependent mice [7]; peptide/morphine treatment, multiple injections, naloxone 0.1-0.50 mg/kg IP): mild hyperthermia
